Experimental data as given in patent US9706772B2, “Method for fungicidal and/or bactericidal treatment of resistant strains using essential oil(s)” (XEDA INTERNATIONAL, priority 2011, dated 2017).

Legend:
[1] = system: strains of Penicillium expansum resistant to pyrimethanil; assay: Efficacy of compositions on Gala apples, FIG. 1; assay type: in vivo; conditions: FIG. 1, "Gala" apples; over the doses shown
Text: These compositions have been tested on various fungi or bacteria strains, such as illustrated in FIGS. 1 and 2. Unless otherwise indicated, the doses listed in the FIGS. 1 and 2 are given in ppm of active ingredient; the indications in ml/l refer to the quantity of composition C. […] Indeed it is observed that there is a synergistic effect between the fungicide and essential oils/terpene agents.

[2] = system: Monilinia fructicola Strain resistant to Pyrimethanil; assay: In-vitro inhibition of growth on PDA Petri dishes; assay type: cell-based; conditions: dose not stated
Method: (§1) The samples were added to the artificial media and gently mixed before solidification of the Agar solution.
(§2) A small amount of fungal spores is placed in the centre of the potato dextrose agar (PDA) in the Petri dishes at 25°±1° C. for 5/6 days. At the end of the incubation period, we measure the inhibition of the halo that is formed in comparison with the untreated PDA Petri dishes (control).
(§3) The results are indicated as a percentage of the incidence of the disease and the efficacy percentage of the products tested.

[3] = system: Botrytis spp. Strain resistant to TBZ; assay: In-vitro inhibition of growth on PDA Petri dishes; assay type: cell-based
Method: as §1, §2, §3

[4] = system: Pennicillum spp. Strain resistant to Imazalil; assay: In-vitro inhibition of growth on PDA Petri dishes; assay type: cell-based
Method: as §1, §2, §3

Pennicillum spp. = assay: In-vitro inhibition of growth on PDA Petri dishes; assay type: cell-based
Method: as §1, §2, §3

Cc1cc(C)nc(Nc2ccccc2)n1 [pyrimethanil]
efficacy [1]: at most 60%
efficacy [2]: 45%

Cc1ccc(C(C)C)cc1O [Carvacrol]
Efficacy (%) ([3]; Dose 100 ml/hl): 100%
Incidence of Disease (%) ([3]; Dose 100 ml/hl): 0%
Efficacy (%) ([3]; Dose 300 ml/hl): 100%
Incidence of Disease (%) ([3]; Dose 300 ml/hl): 0%
Efficacy (%) ([3]; Dose 500 ml/hl): 100%
Incidence of Disease (%) ([3]; Dose 500 ml/hl): 0%
Efficacy (%) ([3]; Dose 1,000 ml/hl): 100%
Incidence of Disease (%) ([3]; Dose 1,000 ml/hl): 0%
control (in words) ([3]; at all doses tested): total control

Cc1ccc(C(C)C)c(O)c1 [Thymol]
Efficacy (%) ([4]; Dose 100 ml/hl): 70%
Incidence of Disease (%) ([4]; Dose 100 ml/hl): 30%
Efficacy (%) ([4]; Dose 300 ml/hl): 70%
Incidence of Disease (%) ([4]; Dose 300 ml/hl): 30%
Efficacy (%) ([4]; Dose 500 ml/hl): 80%
Incidence of Disease (%) ([4]; Dose 500 ml/hl): 20%
Efficacy (%) ([4]; Dose 1,000 ml/hl): 90%
Incidence of Disease (%) ([4]; Dose 1,000 ml/hl): 10%
Efficacy (%) (Pennicillum spp.; Dose 100 ml/hl): 20%
Incidence of Disease (%) (Pennicillum spp.; Dose 100 ml/hl): 80%
Efficacy (%) (Pennicillum spp.; Dose 300 ml/hl): 50%
Incidence of Disease (%) (Pennicillum spp.; Dose 300 ml/hl): 50%
Efficacy (%) (Pennicillum spp.; Dose 500 ml/hl): 70%
Incidence of Disease (%) (Pennicillum spp.; Dose 500 ml/hl): 30%
Efficacy (%) (Pennicillum spp.; Dose 1,000 ml/hl): 70%
Incidence of Disease (%) (Pennicillum spp.; Dose 1,000 ml/hl): 30%
